Results reported in patent US20160113936A1, “METHODS FOR MODULATING MONOCYTE FUNCTION” (Georgia Regents Research Institute, Inc., priority 2014, published 2016).

Assays:
[1] = in vivo; cited from earlier work
[2] = cited from earlier work
NCI 60-cell panel = conditions: read-out: Growth Inhibition of 50% (GI50); cited from earlier work
monocytic THP-1 cells [3] = test: HSP70 protein levels in monocytic THP-1 cells (autoradiograph, FIG. 1); type: cell-based; conditions: β-actin as standard
From the text: FIG. 1 is an autoradiograph showing HSP70 levels in monocytic THP-1 cells treated with NVP-AUY922 or 17-DMAG. β-actin levels are shown as a standard.

human Hsp90α = human Hsp90α (Homo sapiens, UniProt P07900); conditions: cited from earlier work
[4] = tested on: Hsp90 derived from transformed cells overexpressing HER-2; conditions: cited from earlier work
non-tumor cells = conditions: cited from earlier work
[5] = preclinical data; cited from earlier work
Hsp70 = conditions: cited from earlier work
monocytic THP-1 cells [6] = test: Pro-inflammatory cytokine gene expression by qRT-PCR (Table 1); type: cell-based; conditions: Control 1.0
Method: The major pro-inflammatory cytokines that are responsible for early inflammatory responses include IL1-α, IL1-β, IL-6, and TNF-α. […] Inflammatory cytokines and tissue factor gene expression were evaluated using quantitative real-time polymerase chain reaction (qRT-PCR). Amount of tissue factor was determined using a one stage clotting assay calibrated against a known amount of tissue factor (INNOVIN).

mice with SCD = test: LPS challenge in Townes sickle cell (SS) and AA mice treated with AUY922; type: in vivo, mouse
Method: FIG. 4 is a schematic diagram of an experimental procedure for assaying HSP90 inhibitors for the treatment SCD.
FIG. 5A is a bar graph of HSP70/GAPDH (relative units) for mice treated with phosphate buffered saline (PBS) or AUY922 (25 mg/Kg B.W.) daily for four days. FIG. 5B is a bar graph of HSP70/GAPDH (relative units) for mice treated with 0.1 μg/g B.W. of LPS or 0.1 μg/g B.W. of LPS plus AUY922 (25 mg/Kg B.W.).
Cytokine (ng/ml) for AA or SS mice treated with control, AUY, LPS, or LPS+AUY is shown.
Mouse Phenotype: B6;129-Hba^tm1(HBA)Tow Hbb^tm2(HBG1,HBB*)Tow/Hbb^tm3(HBG1,HBB)Tow/J
Entire Mouse Globin Locus Removed and Replace by Human Hemoglobin S or A.
AA, SS, & SA mice are available.

monocytic THP-1 cells [7] = test: Pro-inflammatory cytokine protein expression (Table 1); type: cell-based; conditions: for IL-6 Protein Expression: Control 7.40; for IL-10 Protein Expression: Control 9.89; for IL-1β Protein Expression: Control 15.24; for IL-8 Protein Expression: Control 110.44; for TNF-α Protein Expression: Control 1611.19

CO[C@H]1/C=C\C=C(/C)C(=O)NC2=CC(=O)C(NCCN(C)C)=C(C[C@@H](C)C[C@H](OC)[C@H](O)[C@@H](C)/C=C(\C)[C@@H]1OC(N)=O)C2=O [17-DMAG, 17-Dimethylaminoethylamino-17-demethoxygeldanamycin]
bioavailability [1]: excellent bioavailability
water solubility [2]: water-soluble
GI50 (NCI 60-cell panel): 51 nM
HSP70 protein levels (monocytic THP-1 cells [3]): increases HSP70 protein levels
binding to ATPase site of human Hsp90α (human Hsp90α): high affinity

C=CCNc1c(O)cc2c(O)c1C[C@@H](C)C[C@H](OC)[C@H](O)[C@@H](C)/C=C(\C)[C@H](OC(N)=O)[C@@H](OC)/C=C\C=C(/C)C(=O)N2.Cl [IPI-504, Retaspimycin hydrochloride]
bioavailability [1]: excellent bioavailability
water solubility [2]: water-soluble

C=CCNC1=C2C[C@@H](C)C[C@H](OC)[C@H](O)[C@@H](C)/C=C(\C)[C@H](OC(N)=O)[C@@H](OC)/C=C\C=C(/C)C(=O)NC(=CC1=O)C2=O [17-AAG, 17-allylamino-17-demethoxygeldanamycin]
IC50 ([4]; Hsp90 from HER-2 overexpressing cells (BT474, N87, SKOV3, SKBR3) or BT474 breast carcinoma cells, read-out: 1050 values): 5 to 6 nM
higher affinity for Hsp90 derived from transformed cells ([4]; transformed cells overexpressing HER-2, comparator not printed (non-tumor cells are named just before)): more than 100 ×
GI50 (NCI 60-cell panel): 120 nM
toxicity toward non-tumor cells (non-tumor cells): low toxicity

CC(C)c1cc(-c2n[nH]c(=O)n2-c2ccc3c(ccn3C)c2)c(O)cc1O [Ganetespib]
cardiac or liver toxicity [5]: no evidence of cardiac or liver toxicity
Hsp70 expression (Hsp70): induces the overexpression of Hsp70

CCNC(=O)c1noc(-c2cc(C(C)C)c(O)cc2O)c1-c1ccc(CN2CCOCC2)cc1 [AUY922, 5-(2,4-dihydroxy-5-isopropylphenyl)-N-ethyl-4-(4-(morpholinomethyl)phenyl)isoxazole-3-carboxamide]
IL-1β Gene Expression (Fold) (monocytic THP-1 cells [6]; AUY922 alone): 0.9 Fold
IL-6 Gene Expression (Fold) (monocytic THP-1 cells [6]; AUY922 alone): 1.2 Fold
IL-8 Gene Expression (Fold) (monocytic THP-1 cells [6]; AUY922 alone): 1.0 Fold
IL-10 Gene Expression (Fold) (monocytic THP-1 cells [6]; AUY922 alone): 30.2 Fold
TNF-α Gene Expression (Fold) (monocytic THP-1 cells [6]; AUY922 alone): 0.8 Fold
TNF-α Gene Expression (Fold) (monocytic THP-1 cells [6]; LPS + AUY922, LPS alone 7.1): 6.2 Fold
IL-6 Gene Expression (Fold) (monocytic THP-1 cells [6]; LPS + AUY922, LPS alone 42.5): 3.25 Fold
IL-8 Gene Expression (Fold) (monocytic THP-1 cells [6]; LPS + AUY922, LPS alone 235.5): 795.5 Fold
IL-10 Gene Expression (Fold) (monocytic THP-1 cells [6]; LPS + AUY922, LPS alone 350.4): 200.1 Fold
IL-1β Gene Expression (Fold) (monocytic THP-1 cells [6]; LPS + AUY922, LPS alone 1950): 20 Fold
HSP70 protein levels (monocytic THP-1 cells [3]): increases HSP70 protein levels
inflammation in in vivo model system for SCD (mice with SCD; SS mice): significant decrease in inflammation
plasma levels of Il-1-Beta (mice with SCD; SS mice): reduces plasma levels
plasma levels of TNF-alpha (mice with SCD; SS mice): reduces plasma levels
LPS-induced Il-6 response (mice with SCD; mice with SCD): ablates the profound LPS-induced Il-6 response
endothelial cell activation (sVCAM) (mice with SCD; mice with SCD, PBS, AUY922, LPS or LPS+AUY): blocks endothelial cell activation
HSP70/GAPDH pharmacodynamic response (mice with SCD; mice, AUY922 25 mg/Kg B.W. daily for four days, with or without LPS 0.1 μg/g B.W.): meets pharmacodynamic requirements
IL-6 Protein Expression (monocytic THP-1 cells [7]; AUY922 alone): 7.10
IL-10 Protein Expression (monocytic THP-1 cells [7]; AUY922 alone): 4.20
IL-1β Protein Expression (monocytic THP-1 cells [7]; AUY922 alone): 14.24
IL-8 Protein Expression (monocytic THP-1 cells [7]; AUY922 alone): 130.61
TNF-α Protein Expression (monocytic THP-1 cells [7]; AUY922 alone): 1437.12
IL-10 Protein Expression (monocytic THP-1 cells [7]; LPS + AUY922, LPS alone 41.18): 2.95
IL-6 Protein Expression (monocytic THP-1 cells [7]; LPS + AUY922, LPS alone 156.51): 6.80
IL-1β Protein Expression (monocytic THP-1 cells [7]; LPS + AUY922, LPS alone 775.64): 14.57
IL-8 Protein Expression (monocytic THP-1 cells [7]; LPS + AUY922, LPS alone 839.99): 117.87
TNF-α Protein Expression (monocytic THP-1 cells [7]; LPS + AUY922, LPS alone 4391.73): 1587.49
